IC50 data for 22 molecules are collected here from patent US10377773B2, “Isothiazolopyrimidinones, pyrazolopyrimidinones, and pyrrolopyrimidinones as ubiquitin-specific protease 7 inhibitors” (FORMA Therapeutics, Inc., priority 2015, dated 2019).

T1 sequence (Q93009 208-1102): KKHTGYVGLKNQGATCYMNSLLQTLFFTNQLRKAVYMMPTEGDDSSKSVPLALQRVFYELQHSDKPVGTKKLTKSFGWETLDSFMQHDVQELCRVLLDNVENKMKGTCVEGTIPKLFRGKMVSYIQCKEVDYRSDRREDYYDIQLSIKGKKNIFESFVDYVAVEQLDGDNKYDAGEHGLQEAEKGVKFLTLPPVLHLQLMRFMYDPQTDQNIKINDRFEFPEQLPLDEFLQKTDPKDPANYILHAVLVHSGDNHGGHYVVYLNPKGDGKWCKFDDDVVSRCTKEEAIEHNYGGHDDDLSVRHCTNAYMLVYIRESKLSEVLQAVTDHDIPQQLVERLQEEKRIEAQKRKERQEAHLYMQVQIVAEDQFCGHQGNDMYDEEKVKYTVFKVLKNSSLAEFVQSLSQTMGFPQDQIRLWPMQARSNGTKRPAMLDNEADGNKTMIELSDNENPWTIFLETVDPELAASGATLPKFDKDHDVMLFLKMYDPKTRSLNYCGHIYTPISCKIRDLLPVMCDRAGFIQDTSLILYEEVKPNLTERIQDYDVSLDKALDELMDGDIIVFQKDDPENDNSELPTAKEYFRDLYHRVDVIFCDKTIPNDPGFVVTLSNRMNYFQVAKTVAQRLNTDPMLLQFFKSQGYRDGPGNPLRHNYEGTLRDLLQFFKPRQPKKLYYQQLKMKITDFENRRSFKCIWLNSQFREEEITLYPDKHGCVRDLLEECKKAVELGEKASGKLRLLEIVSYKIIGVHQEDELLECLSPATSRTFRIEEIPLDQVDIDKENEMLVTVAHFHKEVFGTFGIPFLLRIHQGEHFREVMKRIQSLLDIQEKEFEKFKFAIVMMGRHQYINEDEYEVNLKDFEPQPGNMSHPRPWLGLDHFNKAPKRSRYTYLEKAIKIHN

This assay has as its target T1, USP7 (Homo sapiens, UniProt Q93009).
T1 construct: USP7, construct USP7 (208-1102) 6*His, Viva Biotech; initiator Met (N); TEV site (C); 6*His (C); purchased Viva Biotech
Kind of assay: USP7 Assay A and B (Ubiquitin-Rhodamine 110 assay). The assay is classed as biochemical. The note with it: Ub-Rh110 substrate 25 nM, read-out: USP7_IC50. The method, then: Each assay was performed in a final volume of 15 μL in assay buffer containing 20 mM Tris-HCl (pH 8.0, (1M Tris-HCl, pH 8.0 solution; Corning 46-031-CM)), 1 mM GSH (L-Glutathione reduced; Sigma #G4251), 0.03% BGG (0.22 μM filtered, Sigma, #G7516-25G), and 0.01% Triton X-100 (Sigma, #T9284-10L). Nanoliter quantities of either an 8-point or 10-point, 3-fold serial dilution in DMSO was pre-dispensed into assay plates (Perkin Elmer, ProxiPlate-384 F Plus, #6008269) for a final test concentration range of either 25 μM to 11 nM or 25 μM to 1.3 nM, respectively. The final concentration of the enzyme (USP7, construct USP7 (208-1102) 6*His, Viva Biotech) in the assay was 62.5 pM. Final substrate (Ub-Rh110; Ubiquitin-Rhodamine 110, R&D Systems #U-555) concentration was 25 nM with [Ub-Rh110]<<Km. 5 μL of 2× enzyme was added to the assay plates (pre-stamped with compound) and preincubated with USP7 for 30 min. 5 μL of 2×Ub-Rh110 was then added to assay plates. Plates were incubated stacked for 20 min at room temperature before 5 μL of stop solution (final concentration of 10 mM citric acid in assay buffer (Sigma, #251275-500G)). Fluorescence was read on the Envision (Excitation at 485 nm and Emission at 535 nm; Perkin Elmer) or on the PheraSTAR (Excitation at 485 nm and Emission at 535 nm; BMG Labtech).
Each assay was performed in a final volume of 20 μL in assay buffer containing 20 mM Tris-HCl (pH 8.0, (1M Tris-HCl, pH 8.0 solution; Corning 46-031-CM)), 2 mM CaCl2 (1M calcium chloride solution; Sigma #21114), 1 mM GSH (L-Glutathione reduced; Sigma #G4251), 0.01% Prionex (0.22 μM filtered, Sigma #G-0411), and 0.01% Triton X-100. Stock compound solutions were stored at −20° C. as 10 mM in DMSO. Up to 1 month prior to the assay, 2 mM test compounds were pre-dispensed into assay plates (Black, low volume; Corning #3820) and frozen at −20° C. Prestamped assay plates were allowed to warm to room temperature on the day of the assay. For the screen, 100 nL of 2 mM was pre-dispensed for a final screening concentration of 10 μM (DMSO(fc)=0.5%). For follow-up studies, 250 nL of an 8-point, 3-fold serial dilution in DMSO was pre-dispensed into assay plates for a final test concentration of 25 μM-11 nM (1.25c % DMSO final concentration). Unless otherwise indicated, all follow-up assays were run on triplecate plates. Enzyme (USP7, construct Met (208-1102)-TEV-6*His; Viva Q93009-1) concentration and incubation times were optimized for the maximal signal-to-background while maintaining initial velocity conditions at a fixed substrate concentration. The final concentration of the enzyme in the assay was either 75 pM or 250 pM. Final substrate (Ub-Rh110; Ubiquitin-Rhodamine 110, R&D Systems (biotechne)#U-555) concentration was 25 nM with [Ub-Rh110]<<Km. Compounds were either not preincubated or preincubated with USP7 between 30 to 120 min prior to the addition of 10 μL of 2×Ub-Rh110 to compound plates. Plates were incubated stacked for either 23 or 45 min at room temperature before fluorescence was read on the Envision (Excitation at 485 nm and Emission at 535 nm; Perkin Elmer) or on the PheraSTAR (Excitation at 485 nm and Emission at 535 nm; BMG Labtech).
Data from USP7 Assays A and B were reported as percent inhibition (inh) compared with control wells based on the following equation: % inh=1−((FLU−AveLow)/(AveHigh−AveLow)) where FLU=measured Fluorescence, AveLow=average Fluorescence of no enzyme control (n=16), and AveHigh=average Fluorescence of DMSO control (n=16). IC50 values were determined by curve fitting of the standard 4 parameter logistic fitting algorithm included in the Activity Base software package: IDBS XE Designer Model205. Data was fitted using the Levenburg Marquardt algorithm.
Take `C[C@H](CC(=O)N1CCC(O)(Cn2cnc3c(-c4ccccc4)nsc3c2=O)CC1)c1ccccc1` [Compound I-13, 6-({4-hydroxy-1-[(3R)-3-phenylbutanoyl]piperidin-4-yl}methyl)-3-phenyl-6H,7H-[1,2]thiazolo[4,5-d]pyrimidin-7-one]: the IC50 was 1000 to 10000 nM.

Turning to `CN(C)C(=O)N1CCC(O)(Cn2cnc3c(-c4ccc(F)c(N5CCNCC5)c4)nsc3c2=O)CC1` [Compound I-22, 4-({3-[4-fluoro-3-(piperazin-1-yl)phenyl]-7-oxo-6H,7H-[1,2]thiazolo[4,5-d]pyrimidin-6-yl}methyl)-4-hydroxy-N,N-dimethylpiperidine-1-carboxamide], the IC50 fell in the range of 1000 to 10000 nM.

Regarding `C[C@H](CC(=O)N1CCC(O)(Cn2cnc3c(-c4ccccc4)nsc3c2=O)CC1)n1cccn1` [Compound I-16, 6-({4-hydroxy-1-[(3R)-3-(1H-pyrazol-1-yl)butanoyl]piperidin-4-yl}methyl)-3-phenyl-6H,7H-[1,2]thiazolo[4,5-d]pyrimidin-7-one], the IC50 fell in the range of 1000 to 10000 nM. Regarding “3-(4-fluoro-3-methoxyphenyl)-6-{[1-(4-fluorobenzoyl)-4-hydroxypiperidin-4-yl]methyl}-6H,7H-[1,2]thiazolo[4,5-d]pyrimidin-7-one [Compound I-9]”, the IC50 is above 10000 nM. As to `O=C(c1ccccc1)N1CCC(O)(Cn2cnc3c(-c4ccccc4)n[nH]c3c2=O)CC1` [Compound I-29, 6-[(1-benzoyl-4-hydroxypiperidin-4-yl)methyl]-3-phenyl-1H,6H,7H-pyrazolo[4,3-d]pyrimidin-7-one], the IC50 was in the range of 500 to 1000 nM. As for `O=C(c1ccc(F)cc1)N1CCC(O)(Cn2cnc3c(-c4ccc(F)cc4)nsc3c2=O)CC1` [Compound I-30, 6-{[1-(4-fluorobenzoyl)-4-hydroxypiperidin-4-yl]methyl}-3-(4-fluorophenyl)-6H,7H-[1,2]thiazolo[4,5-d]pyrimidin-7-one], the IC50 was above 10000 nM.

For `C[C@H](CC(=O)N1CCC(O)(Cn2cnc3cc[nH]c3c2=O)CC1)c1ccccc1` [Compound I-28, 3-({4-hydroxy-1-[(3R)-3-phenylbutanoyl]piperidin-4-yl}methyl)-3H,4H,5H-pyrrolo[3,2-d]pyrimidin-4-one], the IC50 is below 500 nM. The same measure for `CN1CCN(c2ccc(C(=O)N3CCC(O)(Cn4cnc5c(-c6ccc(F)cc6)nsc5c4=O)CC3)nc2)CC1` [Compound I-10, 3-(4-fluorophenyl)-6-({4-hydroxy-1-[5-(4-methylpiperazin-1-yl)pyridine-2-carbonyl]piperidin-4-yl}methyl)-6H,7H-[1,2]thiazolo[4,5-d]pyrimidin-7-one]: above 10000 nM; for `COc1ccc(C(=O)N2CCC(O)(Cn3cnc4c(-c5ccc(OC)cc5)n[nH]c4c3=O)CC2)cc1` [Compound I-21, 6-{[4-hydroxy-1-(4-methoxybenzoyl)piperidin-4-yl]methyl}-3-(4-methoxyphenyl)-1H,6H,7H-pyrazolo[4,3-d]pyrimidin-7-one]: 500 to 1000 nM; for `COc1ccc(C(=O)N2CCC(O)(Cn3cnc4c(-c5ccc(OC)cc5)nsc4c3=O)CC2)cc1` [Compound I-31, 6-{[4-hydroxy-1-(4-methoxybenzoyl)piperidin-4-yl]methyl}-3-(4-methoxyphenyl)-6H,7H-[1,2]thiazolo[4,5-d]pyrimidin-7-one]: 1000 to 10000 nM.

With `O=C(c1ccc(F)cc1)N1CCC(O)(Cn2cnc3c(-c4ccc(F)cc4)n[nH]c3c2=O)CC1` [Compound I-5, 6-{[1-(4-fluorobenzoyl)-4-hydroxypiperidin-4-yl]methyl}-3-(4-fluorophenyl)-1H,6H,7H-pyrazolo[4,3-d]pyrimidin-7-one], the IC50 is 500 to 1000 nM. With `COc1ccc(C(=O)N2CCC(O)(Cn3cnc4c(-c5ccccc5)nsc4c3=O)CC2)cc1` [Compound I-8, 6-{[4-hydroxy-1-(4-methoxybenzoyl)piperidin-4-yl]methyl}-3-phenyl-6H,7H-[1,2]thiazolo[4,5-d]pyrimidin-7-one], the IC50 fell in the range of 1000 to 10000 nM. For the molecule `O=C(c1ccc(F)cc1)N1CCC(O)(Cn2cnc3c(-c4ccccc4)nsc3c2=O)CC1` [Compound I-1, 6-{[1-(4-fluorobenzoyl)-4-hydroxypiperidin-4-yl]methyl}-3-phenyl-6H,7H-[1,2]thiazolo[4,5-d]pyrimidin-7-one], the IC50 was above 10000 nM. For the molecule `C[C@@H](CC(=O)N1CCC(O)(Cn2cnc3c(-c4ccccc4)nsc3c2=O)CC1)n1cccn1` [Compound I-15, 6-({4-hydroxy-1-[(3 S)-3-(1H-pyrazol-1-yl)butanoyl]piperidin-4-yl}methyl)-3-phenyl-6H,7H-[1,2]thiazolo[4,5-d]pyrimidin-7-one], the IC50 was in the range of 1000 to 10000 nM. `O=C(C[C@H](c1ccccc1)C(F)F)N1CCC(O)(Cn2cnc3c(-c4ccccc4)nsc3c2=O)CC1` [Compound I-18, 6-({1-[(3R)-4,4-difluoro-3-phenylbutanoyl]-4-hydroxypiperidin-4-yl}methyl)-3-phenyl-6H,7H-[1,2]thiazolo[4,5-d]pyrimidin-7-one]: the IC50 is above 10000 nM. As to `CN(C)C(=O)N1CCC(O)(Cn2cnc3c(-c4ccc(NCCN5CCCCC5)cc4)nsc3c2=O)CC1` [Compound I-26, 4-hydroxy-N,N-dimethyl-4-{[7-oxo-3-(4-{[2-(piperidin-1-yl)ethyl]amino}phenyl)-6H,7H-[1,2]thiazolo[4,5-d]pyrimidin-6-yl]methyl}piperidine-1-carboxamide], the IC50 was 1000 to 10000 nM. `COc1ccc(-c2n[nH]c3c(=O)n(CC4(O)CCN(C(=O)c5ccc(F)cc5)CC4)cnc23)cc1` [Compound I-6, 6-{[1-(4-fluorobenzoyl)-4-hydroxypiperidin-4-yl]methyl}-3-(4-methoxyphenyl)-1H, 6H,7H-pyrazolo[4,3-d]pyrimidin-7-one]: the IC50 is below 500 nM.

For `COc1ccc(-c2nsc3c(=O)n(CC4(O)CCN(C(=O)c5ccc(F)cc5)CC4)cnc23)cc1` [Compound I-2, 6-{[1-(4-fluorobenzoyl)-4-hydroxypiperidin-4-yl]methyl}-3-(4-methoxyphenyl)-6H,7H-[1,2]thiazolo[4,5-d]pyrimidin-7-one], the IC50 lay in the range of 1000 to 10000 nM. To `CC(CC(=O)N1CCC(O)(Cn2cnc3c(-c4ccccc4)nsc3c2=O)CC1)c1ccccc1` (stereo not shown) [Compound I-11, 6-{[4-hydroxy-1-(3-phenylbutanoyl)piperidin-4-yl]methyl}-3-phenyl-6H,7H-[1,2]thiazolo[4,5-d]pyrimidin-7-one] belongs 500 to 1000 nM; to `COc1ccc(C(=O)N2CCC(O)(Cn3cnc4c(-c5ccccc5)n[nH]c4c3=O)CC2)cc1` [Compound I-7, 6-{[4-hydroxy-1-(4-methoxybenzoyl)piperidin-4-yl]methyl}-3-phenyl-1H,6H,7H-pyrazolo[4,3-d]pyrimidin-7-one], 1000 to 10000 nM.

For `C[C@@H](CC(=O)N1CCC(O)(Cn2cnc3c(-c4ccccc4)nsc3c2=O)CC1)c1ccccc1` [Compound I-12, 6-({4-hydroxy-1-[(3 S)-3-phenylbutanoyl]piperidin-4-yl}methyl)-3-phenyl-6H,7H-[1,2]thiazolo[4,5-d]pyrimidin-7-one], the IC50 is below 500 nM.

As to `COc1ccc(C(=O)N2CCC(O)(Cn3cnc4c(-c5ccc(F)cc5)nsc4c3=O)CC2)cc1` [Compound I-3, 3-(4-fluorophenyl)-6-{[4-hydroxy-1-(4-methoxybenzoyl)piperidin-4-yl]methyl}-6H,7H-[1,2]thiazolo[4,5-d]pyrimidin-7-one], the IC50 was in the range of 1000 to 10000 nM.
